Results reported in publication PMC2099433, “The binding site for neohesperidin dihydrochalcone at the human sweet taste receptor” (BMC Structural Biology, 2007).

Biological target: T1, rat Tas1r3 and human TAS1R2 (opposite combination) (Rattus norvegicus, UniProt Q923K1)
T1 construct: expressed in transfected cells; host or cells: HEK293T cells stably expressing G16Gust44
Assay: Calcium response, opposite interspecies subunit combination
Format: cell-based
Conditions: 1 mM NHDC
Excerpt: In order to elucidate the putative binding site for NHDC, we cotransfected mixtures of plasmid DNAs for the rat and human TAS1R2 and TAS1R3 receptor subunits in HEK293T cells stably expressing the chimeric G-protein G16Gust44 and measured cellular calcium responses by fluorometry following bath application of various sweet tasting compounds.
Figure 1 Chemical structure and calcium responses elicited by neohesperidin dihydrochalcone. (A) Structure of neohesperidin dihydrochalcone. Numbers denote carbon atom positions. […]
The cDNAs for TAS1Rs tagged at the C-terminus with the herpes simplex virus glycoprotein D (HSV) were transiently transfected into HEK293T cells stably expressing the chimeric G-protein subunit G16Gust44 [44] using Lipofectamine 2000 (Invitrogen, Carlsbad, CA) according to the manufacturer's protocol. […] We monitored calcium mobilization following receptor stimulation with sweet tastants by an automated fluorometric imaging plate reader (FLIPR, Molecular Devices, Sunnyvale, CA). […] The obtained calcium signals were corrected for the response of mock transfected cells and normalized to the fluorescence of cells prior to the application of the stimulus using ΔF/F = (F-F0)/F0. Concentration-response curves and EC50 and IC50 values were calculated in SigmaPlot by nonlinear regression using the function f = ((a-d)/(1+(x/EC50)^nH)+d) and f = (a-b)/[1+(x/IC50)^nH]+b, respectively.

T1 sequence (Q923K1 21-858): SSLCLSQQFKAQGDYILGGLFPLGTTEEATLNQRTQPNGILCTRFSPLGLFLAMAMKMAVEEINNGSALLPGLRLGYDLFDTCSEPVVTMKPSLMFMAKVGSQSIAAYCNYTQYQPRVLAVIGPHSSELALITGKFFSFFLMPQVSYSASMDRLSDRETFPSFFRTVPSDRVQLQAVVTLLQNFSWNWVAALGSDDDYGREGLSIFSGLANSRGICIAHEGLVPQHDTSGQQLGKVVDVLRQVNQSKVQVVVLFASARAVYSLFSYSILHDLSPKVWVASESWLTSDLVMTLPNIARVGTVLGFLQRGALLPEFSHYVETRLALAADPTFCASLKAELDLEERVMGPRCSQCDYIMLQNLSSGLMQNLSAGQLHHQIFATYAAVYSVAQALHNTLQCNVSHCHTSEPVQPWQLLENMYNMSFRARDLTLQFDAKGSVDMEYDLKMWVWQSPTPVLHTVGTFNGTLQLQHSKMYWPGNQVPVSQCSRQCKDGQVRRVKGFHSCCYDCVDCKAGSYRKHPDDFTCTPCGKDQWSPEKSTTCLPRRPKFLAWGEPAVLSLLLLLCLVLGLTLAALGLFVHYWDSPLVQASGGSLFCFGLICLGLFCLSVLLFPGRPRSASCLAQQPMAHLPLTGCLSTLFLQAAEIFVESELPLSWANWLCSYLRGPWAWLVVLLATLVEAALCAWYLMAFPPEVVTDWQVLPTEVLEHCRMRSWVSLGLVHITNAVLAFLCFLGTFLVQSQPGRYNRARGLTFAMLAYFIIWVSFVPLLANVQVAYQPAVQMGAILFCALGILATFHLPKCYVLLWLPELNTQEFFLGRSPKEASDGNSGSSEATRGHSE
T1 sequence (Q8TE23 20-839 partner): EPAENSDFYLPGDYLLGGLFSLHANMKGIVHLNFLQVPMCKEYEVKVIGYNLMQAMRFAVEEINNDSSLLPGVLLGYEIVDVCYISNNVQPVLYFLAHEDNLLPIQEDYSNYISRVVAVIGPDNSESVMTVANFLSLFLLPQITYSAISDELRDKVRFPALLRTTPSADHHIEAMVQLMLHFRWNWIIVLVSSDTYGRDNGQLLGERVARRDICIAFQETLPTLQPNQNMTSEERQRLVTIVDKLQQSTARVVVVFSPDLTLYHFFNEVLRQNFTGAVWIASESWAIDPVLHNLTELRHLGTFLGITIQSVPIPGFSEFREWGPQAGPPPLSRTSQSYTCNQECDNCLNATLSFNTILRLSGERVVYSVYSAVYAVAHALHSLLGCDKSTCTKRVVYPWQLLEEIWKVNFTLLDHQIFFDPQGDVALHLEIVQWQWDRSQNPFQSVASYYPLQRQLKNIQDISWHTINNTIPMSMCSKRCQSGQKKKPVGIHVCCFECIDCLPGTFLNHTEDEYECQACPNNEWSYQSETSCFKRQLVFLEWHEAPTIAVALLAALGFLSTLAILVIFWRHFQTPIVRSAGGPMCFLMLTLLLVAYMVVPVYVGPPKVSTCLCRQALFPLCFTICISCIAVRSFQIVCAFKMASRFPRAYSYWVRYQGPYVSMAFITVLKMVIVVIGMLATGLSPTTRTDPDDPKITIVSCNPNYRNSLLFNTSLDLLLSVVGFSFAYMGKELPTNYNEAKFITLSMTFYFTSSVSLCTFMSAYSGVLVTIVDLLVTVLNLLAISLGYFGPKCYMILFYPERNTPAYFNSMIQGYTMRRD

Q: COc1ccc(CCC(=O)c2c(O)cc(O[C@@H]3O[C@H](CO)[C@@H](O)[C@H](O)[C@H]3O[C@@H]3O[C@@H](C)[C@H](O)[C@@H](O)[C@H]3O)cc2O)cc1O [NHDC, neohesperidin dihydrochalcone] was tested. Which calcium response did it give?
A: did not
